Source: article PMC9101642 (Molecules, 2022)
Read-outs that look alike come from different tables or passages of the source. Marks after values point to notes of the source that are not given here.

How the values were obtained:
ERα [1] = molecular target: T1, ERα (Homo sapiens, UniProt P03372); test: Fluorescence polarization competition assay: antagonistic potency and relative binding affinity; settings: for Ki: calculated antagonistic (inhibitory) constant, read-out: Ka ERα; for IC50: concentration that antagonizes 50% of ERα signaling activity, read-out: ERα (IC50 nM); for logRBA ERα: log of % relative binding affinity, estradiol = 100%; for ERα potency, fold higher than Ral: ratio of IC50 values
T1 sequence (P03372 1-595): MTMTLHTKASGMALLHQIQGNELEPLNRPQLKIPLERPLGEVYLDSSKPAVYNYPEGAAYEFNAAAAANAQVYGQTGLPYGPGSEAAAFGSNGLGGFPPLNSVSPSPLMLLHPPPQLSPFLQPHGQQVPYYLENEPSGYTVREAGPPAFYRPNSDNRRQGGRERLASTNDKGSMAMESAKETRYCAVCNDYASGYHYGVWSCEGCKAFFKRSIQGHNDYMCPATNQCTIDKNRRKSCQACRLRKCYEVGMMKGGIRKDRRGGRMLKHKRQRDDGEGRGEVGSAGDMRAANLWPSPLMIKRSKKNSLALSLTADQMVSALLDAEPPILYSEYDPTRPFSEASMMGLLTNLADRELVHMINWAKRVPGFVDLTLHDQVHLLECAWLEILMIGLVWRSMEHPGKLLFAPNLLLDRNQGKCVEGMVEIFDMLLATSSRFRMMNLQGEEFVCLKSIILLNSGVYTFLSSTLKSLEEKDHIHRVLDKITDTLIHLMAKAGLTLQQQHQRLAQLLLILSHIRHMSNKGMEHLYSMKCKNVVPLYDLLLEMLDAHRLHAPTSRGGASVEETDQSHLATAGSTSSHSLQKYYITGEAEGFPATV

ERβ = ERβ (Homo sapiens, UniProt Q92731); test: as above; settings: for Ki: calculated antagonistic (inhibitory) constant, read-out: Ka ERβ; for IC50: concentration that antagonizes 50% of ERβ signaling activity, read-out: ERβ (IC50 nM); for logRBA ERβ: log of % relative binding affinity, estradiol = 100%
ERβ, sequence (Q92731 whole entry): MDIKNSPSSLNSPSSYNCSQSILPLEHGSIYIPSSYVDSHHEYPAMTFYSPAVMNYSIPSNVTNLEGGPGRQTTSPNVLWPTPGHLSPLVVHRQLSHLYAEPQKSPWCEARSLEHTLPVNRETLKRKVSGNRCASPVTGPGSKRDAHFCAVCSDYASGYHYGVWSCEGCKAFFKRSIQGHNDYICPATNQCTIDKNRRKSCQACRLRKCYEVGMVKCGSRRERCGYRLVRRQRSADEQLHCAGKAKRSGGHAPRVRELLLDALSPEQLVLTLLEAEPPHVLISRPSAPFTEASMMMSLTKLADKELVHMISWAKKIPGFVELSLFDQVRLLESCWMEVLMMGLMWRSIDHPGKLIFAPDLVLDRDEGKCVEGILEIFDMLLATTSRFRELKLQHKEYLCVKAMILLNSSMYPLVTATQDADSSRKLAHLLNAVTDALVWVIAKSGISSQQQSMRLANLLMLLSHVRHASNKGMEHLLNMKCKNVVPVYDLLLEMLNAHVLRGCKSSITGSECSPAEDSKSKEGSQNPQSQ

MCF-7 cell lines = test: MTT antiproliferative assay; format: cell-based, human; settings: for IC50: Homo sapiens, read-out: MCF-7 (IC50 nM); for MCF-7 antiproliferative potency, fold higher than Ral / MCF-7 antiproliferative potency, fold lower than 3DPQ-12: ratio of IC50 values
MDA-MB-231 cell lines = test: MTT antiproliferative assay; format: cell-based, human; settings: Homo sapiens, read-out: MDA-MB-231 (IC50 nM)
ERα [2] = molecular target: T1, ERα; test: ERα down-regulation immunofluorescence assay in MCF-7; format: cell-based; settings: ERα downregulation measured in MCF-7; read-out: MCF-7 DR (IC50 nM)
[3] = tested on: progesterone receptor (PR); test: ERα functional antagonism cell assay (PR as biomarker) in MCF-7; format: cell-based; settings: Homo sapiens, MCF7; progesterone receptor as biomarker for ERα antagonism in MCF-7
[4] = tested on: p53 promoter activity (p21 promoter); test: qChIP of ERα-p53 interaction on the p21 promoter in MCF-7; format: cell-based, human
MCF-7 cells = test: Cell cycle distribution by flow cytometry; format: cell-based, human; settings: 24 h
[5] = tested on: MNU-induced breast cancer; test: In vivo anticancer screening, MNU-induced mammary tumorigenesis; design: species or system female Wistar rats
[6] = Plasma protein binding determination; format: in vitro ADME, rat; settings: rat plasma, 37 °C, read-out: Rat PPB (%free)
Summary of the method: (§1)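 Mammary tumours induced in rats by MNU 50 mg/kg i.p. at day 50; after two weeks, compounds given orally at 5 or 50 mg/kg once daily for six weeks. Serum AST, ALT (340 nm), ALP (405 nm) and bilirubin measured; liver homogenate GSH, CAT, MDA by colorimetry; plasma binding by ultrafiltration at 37°C with BCA protein read-out.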

[7] = Liver oxidative stress markers after treatment of MNU-induced rats; format: in vivo, Wistar rats; design: CAT: unit not given here; settings: liver; for CAT: catalase activity; for GSH: reduced glutathione; for SOD (U/mg): superoxide dismutase activity; for TP: total protein content
Summary of the method: as §1

[8] = rat, in vivo
[9] = Lipophilicity by shake-flask method; settings: pH 7.4
[10] = Pharmacokinetics study, oral bioavailability; settings: rat
[11] = dose 50 mg/kg (compounds per os after MNU; MNU alone i.p.)

Structure (SMILES): CC(=O)c1cc(C(=O)OC2/C=C/C(=O)O[C@@H](O)CCC/C=C/[C@@H]3C[C@H](O)C[C@@H]23)ccc1OCCN1CCC=C(C(=O)O)C1 (stereo partly drawn) [Compound 3DPQ-3, 1-(2-(2-acetyl-4-((((2E,6R,10E,11aS,13S,14aR)-6,13-dihydroxy-4-oxo-4,6,7,8,9,11a,12,13,14,14a-decahydro-1H-cyclopenta[f][1]oxacyclotridecin-1-yl)oxy)carbonyl)phenoxy)ethyl)-1,2,5,6-tetrahydropyridine-3-carboxylic acid]
- Ki (ERα [1]): 0.1 nM
- IC50 (ERα [1]): 0.44 ± 0.31 nM
- logRBA ERα (ERα [1]): 2.31 ^†,‡,§
- ERα potency, fold higher than Ral (ERα [1]): 1.68 fold
- Ki (ERβ): 42.1 nM
- IC50 (ERβ): 74.86 ± 0.14 nM
- logRBA ERβ (ERβ): 0.08 ^†,‡,§
- IC50 (MCF-7 cell lines; MCF7, 48 h): 0.61 ± 0.56 nM
- MCF-7 antiproliferative potency, fold higher than Ral (MCF-7 cell lines): 1.43 fold
- MCF-7 antiproliferative potency, fold lower than 3DPQ-12 (MCF-7 cell lines): 1.11 fold
- IC50 (MDA-MB-231 cell lines; MDA-MB-231, 48 h): 86.63 ± 0.68 nM
- IC50 (ERα [2]): > 100 nM
- IC50 [3]: > 100 nM
- p53 promoter activity, fold higher than the one provoked by Ral ([4]; higher concentration (1 nM)): 0.61 fold
- p53 promoter activity, fold higher than the one provoked by Ral ([4]; lower concentration (0.1 nM)): 0.68 fold
- Cell Cycle (%) G0/G1 (MCF-7 cells; 0.1 nM): 72.99 ± 1.32 *^,†,‡,§ %
- Cell Cycle (%) G2/M (MCF-7 cells; 0.1 nM): 18.03 ± 1.65 *^,†,‡,§ %
- Cell Cycle (%) S (MCF-7 cells; 0.1 nM): 8.98 ± 1.64 *^,†,‡,§ %
- Cell Cycle (%) G0/G1 (MCF-7 cells; 1 nM): 75.45 ± 1.53 *^,†,‡,§ %
- Cell Cycle (%) G2/M (MCF-7 cells; 1 nM): 14.87 ± 2.43 *^,†,‡,§ %
- Cell Cycle (%) S (MCF-7 cells; 1 nM): 9.69 ± 0.94 *^,†,‡,§ %
- Tumor Burden (week) ([5]; dose 5 mg/kg per os after MNU): 2.18 ± 0.69 *^,†,‡,‖ week
- Tumor Latency (week) ([5]; dose 5 mg/kg per os after MNU): 12 *^,†,‡ week
- Tumor Volume (mm^3) ([5]; dose 5 mg/kg per os after MNU): 0.78 ± 0.43 *^,†,‡,‖ mm^3
- Tumor Burden (week) [5, 11]: 1.16 ± 0.64 *^,†,§,┴ week
- Tumor Latency (week) [5, 11]: 15 *^,†,§ week
- Tumor Volume (mm^3) [5, 11]: 0.66 ± 0.21 *^,†,§,┴ mm^3
- fraction unbound at 5 mg/kg bwt [6]: 0.0134
- fraction unbound at 50 mg/kg bwt [6]: 0.0147
- CAT ([7]; dose 5 mg/kg): 17.46±0.82
- CAT ([7]; dose 50 mg/kg): 18.32±0.63
- TBARS ([7]; dose 5 mg/kg): 0.24 nmol/mg
- TBARS ([7]; dose 50 mg/kg): 0.56 ± 0.32 nmol/mg
- GSH ([7]; dose 5 mg/kg): 9.15 mg/g
- GSH ([7]; dose 50 mg/kg): 9.74 mg/g
- SOD (U/mg) ([7]; dose 5 mg/kg): 7.32±0.18 U/mg
- SOD (U/mg) ([7]; dose 50 mg/kg): 11.46±0.36 U/mg
- TP ([7]; dose 5 mg/kg): 38.32 g/L
- TP ([7]; dose 50 mg/kg): 46.47 g/L
- WL after MFD (day 1, mg) [8]: 320,45 ± 0.62 mg
- logD at 30 min [9]: 2.07
- BIO ([10]; oral 5 mg/kg): 90
- BIO ([10]; oral 50 mg/kg): 93

Structure (SMILES): CC(=O)c1cc(C(=O)O[C@@H]2/C=C/C(=O)O[C@@H](O)CCC/C=C/[C@@H]3C[C@H](O)C[C@H]32)ccc1OCCN1CC(C(=O)O)=CCC1=O [Compound 3DPQ-9, 1-(2-(2-acetyl-4-((((1R,2E,6R,10E,11aS,13S,14aR)-6,13-dihydroxy-4-oxo-4,6,7,8,9,11a,12,13,14,14a-decahydro-1H-cyclopenta[f][1]oxacyclotridecin-1-yl)oxy)carbonyl)phenoxy)ethyl)-6-oxo-1,2,5,6-tetrahydropyridine-3-carboxylic acid]
- Ki (ERα [1]): 0.1 nM
- IC50 (ERα [1]): 0.45 ± 0.14 nM
- logRBA ERα (ERα [1]): 2.30 ^†,‡,§
- ERα potency, fold higher than Ral (ERα [1]): 1.64 fold
- Ki (ERβ): 46.9 nM
- IC50 (ERβ): 83.56 ± 0.46 nM
- logRBA ERβ (ERβ): 0.03 ^†,‡,§
- IC50 (MCF-7 cell lines; MCF7, growth inhibition, 48 h): 0.62 ± 0.15 nM
- MCF-7 antiproliferative potency, fold higher than Ral (MCF-7 cell lines): 1.46 fold
- MCF-7 antiproliferative potency, fold lower than 3DPQ-12 (MCF-7 cell lines): 1.09 fold
- IC50 (MDA-MB-231 cell lines; MDA-MB-231, growth inhibition, 48 h): 81.63 ± 0.42 nM
- IC50 (ERα [2]): > 100 nM
- IC50 [3]: > 100 nM
- p53 promoter activity, fold higher than the one provoked by Ral ([4]; higher concentration (1 nM)): 0.66 fold
- p53 promoter activity, fold higher than the one provoked by Ral ([4]; lower concentration (0.1 nM)): 0.68 fold
- Cell Cycle (%) G0/G1 (MCF-7 cells; 0.1 nM): 71.47 ± 0.99 *^,†,‡,§ %
- Cell Cycle (%) G2/M (MCF-7 cells; 0.1 nM): 15.56 ± 2.65 *^,†,‡,§ %
- Cell Cycle (%) S (MCF-7 cells; 0.1 nM): 12.97 ± 1.65 *^,†,‡,§ %
- Cell Cycle (%) G0/G1 (MCF-7 cells; 1 nM): 75.93 ± 152 *^,†,‡,§ %
- Cell Cycle (%) G2/M (MCF-7 cells; 1 nM): 10.40 ± 3.54 *^,†,‡,§ %
- Cell Cycle (%) S (MCF-7 cells; 1 nM): 13.68 ± 1.74 *^,†,‡,§ %
- Tumor Burden (week) ([5]; dose 5 mg/kg per os after MNU): 2.28 ± 0.47 *^,†,‡,‖ week
- Tumor Latency (week) ([5]; dose 5 mg/kg per os after MNU): 12 *^,†,‡ week
- Tumor Volume (mm^3) ([5]; dose 5 mg/kg per os after MNU): 0.77 ± 0.32 *^,†,‡,‖ mm^3
- Tumor Burden (week) [5, 11]: 1.14 ± 0.65 *^,†,§,┴ week
- Tumor Latency (week) [5, 11]: 15 *^,†,§ week
- Tumor Volume (mm^3) [5, 11]: 0.40 ± 0.43 *^,†,§,┴ mm^3
- fraction unbound at 5 mg/kg bwt [6]: 0.0128
- fraction unbound at 50 mg/kg bwt [6]: 0.0131
- CAT ([7]; dose 5 mg/kg): 10.83±0.46
- CAT ([7]; dose 50 mg/kg): 13.32±0.54
- TBARS ([7]; dose 5 mg/kg): 0.96 nmol/mg
- TBARS ([7]; dose 50 mg/kg): 0.96 ± 0.24 nmol/mg
- GSH ([7]; dose 5 mg/kg): 8.66 mg/g
- GSH ([7]; dose 50 mg/kg): 8.89 mg/g
- SOD (U/mg) ([7]; dose 5 mg/kg): 7.74±0.37 U/mg
- SOD (U/mg) ([7]; dose 50 mg/kg): 14.43±0.35 U/mg
- TP ([7]; dose 50 mg/kg): 39.43 g/L
- WL after MFD (day 1, mg) [8]: 315.54 ± 0.65 mg
- logD at 30 min ([9]; n-octanol/phosphate buffer): 2.02
- BIO ([10]; oral 5 mg/kg): 94 ^‡
- BIO ([10]; oral 50 mg/kg): 97
